Data published in patent publication US20170197935A1, “INHIBITORS OF DNA GYRASE FOR THE TREATMENT OF BACTERIAL INFECTIONS” (Vitas Pharma Research Private Limited, priority 2012, published 2017).
≈ marks a conversion by molar mass, not a printed value.

Key:
[1] = led to discontinuation from clinical development; North American Journal of Medical Science, 4, 537-47, 2012; cited from earlier work
MRSA E9823 = test: MIC against FQ resistant clinical strain MRSA E9823; format: cell-based; settings: Staphylococcus aureus, fluoroquinolone resistant clinical strain, read-out: MIC against FQ resistant strains, MRSA E9823
Method: (§1) Shown below are the microbiological activities of representative compounds of Formula I of the invention. The compounds were tested by the microbroth dilution method (National committee for Clinical Laboratory Standards, 2011, M07-08) and the Minimum Inhibitory Concentration (MIC) was determined.
(§2) To test if compounds are able to overcome fluoroquinolone resistance, we have determined the MICS against Fluoroquinolone (FQ) resistant clinical strains of MRSA and E. coli.

E. coli U5690 = test: MIC against FQ resistant clinical strain E. coli U5690; format: cell-based; settings: Escherichia coli, fluoroquinolone resistant clinical strain, read-out: MIC against FQ resistant strains, E. coli U5690
Method: (§3) The compounds were tested by the microbroth dilution method (National committee for Clinical Laboratory Standards, 2011, M07-08) and the Minimum Inhibitory Concentration (MIC) was determined.

E. coli U1306 = test: MIC against FQ resistant clinical strain E. coli U1306; format: cell-based; settings: Escherichia coli, fluoroquinolone resistant clinical strain, read-out: MIC against FQ resistant strains, E. coli U1306
Method: as §3

[2] = tested on: S. aureus (MRSA ATCC 33591); test: Systemic infection model in mice against S. aureus (MRSA ATCC 33591); format: in vivo; settings: 10 mg/kg i.v. one hour after infection and again 4 hours later, 15× lethal dose MRSA ATCC33591 intraperitoneally
Method: In order to evaluate the in vivo efficacy of the scaffold, we tested representative compounds for activity in the systemic infection model in mice (Antimicrobial Agents and Chemotherapy, 47, 2507-2512, 2003). In this model, a 15× medial lethal dose of the bacteria (MRSA ATCC33591) is administered to mice intraperiotoneally. An hour later, the compound is administered i.v. and again 4 hours later. VT-03-00061, was efficacious with a 50% survival at a dose of 10 mg/kg in this model.

[3] = tested on: Staphylococcus aureus (ATCC 29213); test: MIC by microbroth dilution, Staphylococcus aureus ATCC 29213; format: cell-based; settings: ATCC29213
Method: (§4) Shown below are the microbiological activities of representative compounds of Formula I of the invention. The compounds were tested by the microbroth dilution method (National committee for Clinical Laboratory Standards, 2011, […]-08) and the Minimum Inhibitory Concentration (MIC) was determined.

[4] = Single dose pharmacokinetics in male Swiss albino mice; format: in vivo; settings: for AUC(0-inf) / Cmax / half-life: mouse, in vivo, single dose
Method: (§5) Compounds were dosed to male Swiss albino mice to determine the pharmacokinetic profiles.
as §5

hERG [5] = target: T1, hERG (Homo sapiens, UniProt Q12809); test: biochemical
Method: To test the ability of the VT-03 compounds to bind the hERG channel, membranes expressing the hERG channel were incubated with radiolabeled Astemizole and displacement of the labeled ligand in the presence of compounds was measured.
To test the ability of the VT-03 compounds (of Formula II) to bind the hERG channel, membranes expressing the hERG channel were incubated with radiolabeled Astemizole and displacement of the labeled ligand in the presence of compounds was measured.

MRSA E9749 = test: MIC against FQ resistant clinical strain MRSA E9749; format: cell-based; settings: Staphylococcus aureus, fluoroquinolone resistant clinical strain, read-out: MIC against FQ resistant strains, MRSA E9749
Method: as §1, §2

[6] = tested on: Methicillin resistant Staphylococcus aureus (ATCC 33591); test: MIC by microbroth dilution, MRSA ATCC 33591; format: cell-based; settings: ATCC33591, Formula I compounds, read-out: MIC Methicillin resistant Staphylococcus aureus (ATCC 33591)
How it was run: (§6)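 NCCLS (M07-08) microbroth dilution method used; values are MICs.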

[7] = tested on: Moraxella catarrhalis (ATCC 8176); test: MIC by microbroth dilution, Moraxella catarrhalis ATCC 8176; format: cell-based; settings: ATCC8176
Method: as §4

E. coli (ATCC 25922) = test: MIC by microbroth dilution, E. coli ATCC 25922; format: cell-based; settings: Escherichia coli, ATCC25922, Formula I compounds, read-out: MIC E. coli (ATCC 25922)
How it was run: as §6

E. coli 86 = test: MIC against FQ resistant clinical strain E. coli 86; format: cell-based; settings: Escherichia coli, fluoroquinolone resistant clinical strain, read-out: MIC against FQ resistant strains, E. coli 86
Method: as §3

[8] = tested on: Enterococcus faecalis (ATCC 29212); test: MIC by microbroth dilution, Enterococcus faecalis ATCC 29212; format: cell-based; settings: ATCC29212
Method: as §4

MRSA 33591 = test: Mutation prevention concentration against MRSA 33591; format: cell-based
Method: The mutation prevention concentration or the concentration above which mutants are unlikely to be selected, was determined based on published protocols (Antimicrobial Agents and Chemotherapy, 45, 433-438, 2001).

E. coli Gyrase = target: T2, E. coli Gyrase (Escherichia coli, UniProt P0AES4+P0AES6); test: in vitro Gyrase supercoiling assay (Inspiralis kit); format: biochemical; settings: 1 hour at 37° C., read-out: % inhibition of DNA supercoiling activity
T2 construct: purchased Inspiralis
Method: To test for target specificity, the activity of compounds was evaluated in an in vitro Gyrase assay using recombinant Gyrase protein as per the instructions of the assay kit (Inspiralis). The assay measures the ability of E. coli Gyrase to convert relaxed plasmid DNA into the supercoiled form. The enzyme is incubated with the substrate (relaxed DNA) in the presence and absence of compounds for 1 hour at 37° C. and the DNA is run on a gel at low voltage for several hours. The gel is then stained with Ethidium bromide and DNA in the different forms is quantified using DNA imaging and quantification software (Image Lab). The activity of the enzyme is proportional to the amount of supercoiled form detected.

[9] = tested on: K. pneumoniae (ATCC 700603); test: MIC by microbroth dilution, K. pneumoniae ATCC 700603; format: cell-based; settings: Klebsiella pneumoniae, ATCC700603, Formula I compounds
How it was run: as §6

E. coli E1851 = test: MIC against FQ resistant clinical strain E. coli E1851; format: cell-based; settings: Escherichia coli, fluoroquinolone resistant clinical strain, read-out: MIC against FQ resistant strains, E. coli E1851
Method: as §3

[10] = tested on: Streptococcus pneumoniae (ATCC 6301); test: MIC by microbroth dilution, Streptococcus pneumoniae ATCC 6301; format: cell-based; settings: ATCC6301
Method: as §4

hERG [11] = target: T1, hERG; settings: BMCL, 21, 7489-7495, 2011; cited from earlier work

T1 sequence (Q12809 whole entry): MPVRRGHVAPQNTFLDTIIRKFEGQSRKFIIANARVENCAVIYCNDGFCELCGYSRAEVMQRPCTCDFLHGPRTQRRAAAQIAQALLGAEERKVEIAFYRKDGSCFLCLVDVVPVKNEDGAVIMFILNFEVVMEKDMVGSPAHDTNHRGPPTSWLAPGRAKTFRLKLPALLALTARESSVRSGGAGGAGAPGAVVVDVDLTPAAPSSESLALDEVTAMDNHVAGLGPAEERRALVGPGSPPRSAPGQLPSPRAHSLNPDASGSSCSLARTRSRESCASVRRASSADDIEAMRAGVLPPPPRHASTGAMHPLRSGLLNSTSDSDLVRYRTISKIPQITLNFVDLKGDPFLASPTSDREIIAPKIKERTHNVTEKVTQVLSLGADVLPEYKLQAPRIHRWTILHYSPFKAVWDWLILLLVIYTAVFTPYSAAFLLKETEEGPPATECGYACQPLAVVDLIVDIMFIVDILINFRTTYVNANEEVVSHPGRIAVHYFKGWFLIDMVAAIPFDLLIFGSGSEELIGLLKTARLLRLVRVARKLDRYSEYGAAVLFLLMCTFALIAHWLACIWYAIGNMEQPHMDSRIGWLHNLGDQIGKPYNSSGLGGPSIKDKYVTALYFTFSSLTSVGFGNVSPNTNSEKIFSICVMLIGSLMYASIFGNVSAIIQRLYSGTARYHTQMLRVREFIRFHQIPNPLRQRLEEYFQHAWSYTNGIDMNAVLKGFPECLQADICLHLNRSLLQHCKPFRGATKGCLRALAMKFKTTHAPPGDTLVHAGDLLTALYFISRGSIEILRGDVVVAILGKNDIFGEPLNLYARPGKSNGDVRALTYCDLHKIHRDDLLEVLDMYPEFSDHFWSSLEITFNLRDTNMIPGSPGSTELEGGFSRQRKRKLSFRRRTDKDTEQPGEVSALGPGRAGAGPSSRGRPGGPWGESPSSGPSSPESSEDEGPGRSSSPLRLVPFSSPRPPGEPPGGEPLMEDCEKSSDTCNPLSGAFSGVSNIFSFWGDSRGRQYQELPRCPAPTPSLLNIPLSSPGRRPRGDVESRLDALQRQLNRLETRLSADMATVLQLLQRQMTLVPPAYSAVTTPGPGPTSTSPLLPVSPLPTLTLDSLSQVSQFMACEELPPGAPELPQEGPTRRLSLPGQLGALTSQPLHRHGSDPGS
T2 sequence (P0AES4 whole entry, one chain of several): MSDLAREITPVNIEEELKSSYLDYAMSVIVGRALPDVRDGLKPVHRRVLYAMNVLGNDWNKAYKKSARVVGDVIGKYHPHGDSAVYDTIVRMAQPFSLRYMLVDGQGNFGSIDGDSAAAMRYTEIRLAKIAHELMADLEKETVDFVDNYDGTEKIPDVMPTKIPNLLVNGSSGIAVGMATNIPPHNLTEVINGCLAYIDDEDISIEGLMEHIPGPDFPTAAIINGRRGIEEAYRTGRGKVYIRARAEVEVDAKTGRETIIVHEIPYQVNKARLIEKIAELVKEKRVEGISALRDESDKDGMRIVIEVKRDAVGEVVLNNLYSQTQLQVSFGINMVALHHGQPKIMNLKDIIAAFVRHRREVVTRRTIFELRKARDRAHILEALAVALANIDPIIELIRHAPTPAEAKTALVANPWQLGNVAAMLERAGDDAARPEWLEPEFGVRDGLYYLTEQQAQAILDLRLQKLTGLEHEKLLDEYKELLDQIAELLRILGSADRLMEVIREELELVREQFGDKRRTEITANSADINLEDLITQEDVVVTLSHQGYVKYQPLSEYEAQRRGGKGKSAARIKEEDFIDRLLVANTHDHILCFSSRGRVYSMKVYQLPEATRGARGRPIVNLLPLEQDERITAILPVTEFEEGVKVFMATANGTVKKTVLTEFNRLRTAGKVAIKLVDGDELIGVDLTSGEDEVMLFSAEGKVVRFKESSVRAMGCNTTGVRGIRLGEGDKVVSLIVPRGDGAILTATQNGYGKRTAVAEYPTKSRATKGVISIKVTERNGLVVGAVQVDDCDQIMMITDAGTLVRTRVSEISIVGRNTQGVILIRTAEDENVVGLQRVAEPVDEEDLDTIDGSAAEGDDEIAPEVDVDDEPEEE

SMILES: COc1ccc2ncc(F)c([C@@H](O)CC[C@@H]3CCN(CCSc4cccs4)C[C@@H]3C(=O)O)c2c1 [NXL-101]
- QT prolongation (in words) [1]: causes QT prolongation

SMILES: COc1ccc2ncc(C#N)c(CCN3CCC(NCc4ccc(C)c([N+](=O)[O-])c4)CC3)c2c1 [VT-03-00061]
- MIC (MRSA E9823): ≤ 0.0075 µg/mL
- MIC (E. coli U5690): 2 µg/mL (≈ 4.35 µM)
- MIC (E. coli U1306): 2 µg/mL (≈ 4.35 µM)
- survival [2]: 50%
- MIC [3]: 0.015 µg/mL (≈ 0.0326 µM)
- oral bioavailability (in words) [4]: orally bioavailable
- AUC(0-inf) ([4]; intravenous, 5 mg/kg b.w.): 368 ng·h/mL
- Cmax ([4]; intravenous, 5 mg/kg b.w.): 400 ng/mL
- half-life ([4]; intravenous, 5 mg/kg b.w.): 1.64 h
- AUC(0-inf) ([4]; oral, 10 mg/kg b.w.): 104 ng·h/mL
- Cmax ([4]; oral, 10 mg/kg b.w.): 51.5 ng/mL
- half-life ([4]; oral, 10 mg/kg b.w.): 1.74 h
- F % (Oral bioavaialbility) ([4]; oral 10 mg/kg vs intravenous 5 mg/kg): 11.51%
- IC50 (hERG [5]): > 30 µM
- MIC (MRSA E9749): 0.015 µg/mL (≈ 0.0326 µM)
- MIC [6]: 0.015 µg/mL (≈ 0.0326 µM)
- MIC [7]: 0.12 µg/mL (≈ 0.261 µM)
- MIC (E. coli (ATCC 25922)): 1 µg/mL (≈ 2.18 µM)
- MIC (E. coli 86): 2 µg/mL (≈ 4.35 µM)
- MIC [8]: 0.25 µg/mL (≈ 0.544 µM)
- Mutation prevention concentration (MRSA 33591): 0.12 µg/mL
- inhibition at 0.1 µM (E. coli Gyrase; 0.1 μM compound): 99.8%
- inhibition at 1 µM (E. coli Gyrase; 1 μM compound): 99.7%
- MIC [9]: 8 µg/mL (≈ 17.4 µM)
- MIC (E. coli E1851): 0.5 µg/mL (≈ 1.09 µM)
- MIC [10]: 0.015 µg/mL (≈ 0.0326 µM)

SMILES: COc1ccc2ncc(C#N)c(CCN3CCC(NCc4cc5c(cn4)OCS5)CC3)c2c1 [GSK299423]
- hERG binding liability (in words) (hERG [11]): serious hERG binding liability
